Calls of active or inactive are those of the source. No cut-off for these calls is given here.
Assays:
[1] = Cytotoxicity against human ALL5 cells after 120 hrs by MTT method; assay type: functional, cell-based; conditions: ALL5, 120 h
HeLa = assay: Cytotoxicity against human HeLa cells up to 10 uM after 72 hrs by MTT method; assay type: functional, cell-based
[2] = Cell cycle arrest in human ALL5 cells assessed as accumulation at subG1 phase at 25 uM after 48 hrs by propidium iodide staining based flow cytometric analysis (reference value: 3.44 %); assay type: functional
[3] = Cell cycle arrest in human ALL5 cells assessed as accumulation at G1 phase at 25 uM after 48 hrs by propidium iodide staining based flow cytometric analysis (reference value: 70.5 %); assay type: functional
[4] = Cell cycle arrest in human ALL5 cells assessed as accumulation at S phase at 25 uM after 48 hrs by propidium iodide staining based flow cytometric analysis (reference value: 11.7 %); assay type: functional
[5] = Cell cycle arrest in human ALL5 cells assessed as accumulation at G2 phase at 25 uM after 48 hrs by propidium iodide staining based flow cytometric analysis (reference value: 13.6 %); assay type: functional
[6] = Cell cycle arrest in human ALL5 cells assessed as accumulation at subG1 phase at 25 uM after 96 hrs by propidium iodide staining based flow cytometric analysis (reference value: 3.44 %); assay type: functional
[7] = Cell cycle arrest in human ALL5 cells assessed as accumulation at G1 phase at 25 uM after 96 hrs by propidium iodide staining based flow cytometric analysis (reference value: 70.5 %); assay type: functional
[8] = Cell cycle arrest in human ALL5 cells assessed as accumulation at S phase at 25 uM after 96 hrs by propidium iodide staining based flow cytometric analysis (reference value: 11.7 %); assay type: functional
[9] = Cell cycle arrest in human ALL5 cells assessed as accumulation at G2 phase at 25 uM after 96 hrs by propidium iodide staining based flow cytometric analysis (reference value: 13.6 %); assay type: functional
[10] = Cell cycle arrest in human ALL5 cells assessed as accumulation at subG1 phase at 25 uM after 120 hrs by propidium iodide staining based flow cytometric analysis (reference value: 3.44 %); assay type: functional
[11] = Cell cycle arrest in human ALL5 cells assessed as accumulation at G1 phase at 25 uM after 120 hrs by propidium iodide staining based flow cytometric analysis (reference value: 70.5 %); assay type: functional
[12] = Cell cycle arrest in human ALL5 cells assessed as accumulation at S phase at 25 uM after 120 hrs by propidium iodide staining based flow cytometric analysis (reference value: 11.7 %); assay type: functional
[13] = Cell cycle arrest in human ALL5 cells assessed as accumulation at G2 phase at 25 uM after 120 hrs by propidium iodide staining based flow cytometric analysis (reference value: 13.6 %); assay type: functional
ALL5 [14] = assay: Increase in p53 expression in human ALL5 cells at 25 uM after 96 hrs by Western blot analysis; assay type: functional, cell-based
[15] = Cell cycle arrest in human ALL5 cells assessed as accumulation at subG1 phase at 25 uM after 96 hrs in presence of CDK4/6 inhibitor palbociclib by propidium iodide staining based flow cytometric analysis (reference value: 1.47%); assay type: functional
[16] = Cell cycle arrest in human ALL5 cells assessed as accumulation at G1 phase at 25 uM after 96 hrs in presence of CDK4/6 inhibitor palbociclib by propidium iodide staining based flow cytometric analysis (reference value: 97.8%); assay type: functional
[17] = Cell cycle arrest in human ALL5 cells assessed as accumulation at S phase at 25 uM after 96 hrs in presence of CDK4/6 inhibitor palbociclib by propidium iodide staining based flow cytometric analysis (reference value: 0.07%); assay type: functional
[18] = Cell cycle arrest in human ALL5 cells assessed as accumulation at G2 phase at 25 uM after 96 hrs in presence of CDK4/6 inhibitor palbociclib by propidium iodide staining based flow cytometric analysis (reference value: 0.64%); assay type: functional
[19] = Cell cycle arrest in human ALL5 cells assessed as accumulation at subG1 phase at 17 uM after 48 hrs by propidium iodide staining based flow cytometric analysis (reference value: 3.44 %); assay type: functional
[20] = Cell cycle arrest in human ALL5 cells assessed as accumulation at G1 phase at 17 uM after 48 hrs by propidium iodide staining based flow cytometric analysis (reference value: 70.5 %); assay type: functional
[21] = Cell cycle arrest in human ALL5 cells assessed as accumulation at S phase at 17 uM after 48 hrs by propidium iodide staining based flow cytometric analysis (reference value: 11.7 %); assay type: functional
[22] = Cell cycle arrest in human ALL5 cells assessed as accumulation at G2 phase at 17 uM after 48 hrs by propidium iodide staining based flow cytometric analysis (reference value: 13.6 %); assay type: functional
[23] = Cell cycle arrest in human ALL5 cells assessed as accumulation at subG1 phase at 17 uM after 96 hrs by propidium iodide staining based flow cytometric analysis (reference value: 3.44 %); assay type: functional
[24] = Cell cycle arrest in human ALL5 cells assessed as accumulation at G1 phase at 17 uM after 96 hrs by propidium iodide staining based flow cytometric analysis (reference value: 70.5 %); assay type: functional
[25] = Cell cycle arrest in human ALL5 cells assessed as accumulation at S phase at 17 uM after 96 hrs by propidium iodide staining based flow cytometric analysis (reference value: 11.7 %); assay type: functional
[26] = Cell cycle arrest in human ALL5 cells assessed as accumulation at G2 phase at 17 uM after 96 hrs by propidium iodide staining based flow cytometric analysis (reference value: 13.6 %); assay type: functional
[27] = Cell cycle arrest in human ALL5 cells assessed as accumulation at subG1 phase at 17 uM after 120 hrs by propidium iodide staining based flow cytometric analysis (reference value: 3.44 %); assay type: functional
[28] = Cell cycle arrest in human ALL5 cells assessed as accumulation at G1 phase at 17 uM after 120 hrs by propidium iodide staining based flow cytometric analysis (reference value: 70.5 %); assay type: functional
[29] = Cell cycle arrest in human ALL5 cells assessed as accumulation at S phase at 17 uM after 120 hrs by propidium iodide staining based flow cytometric analysis (reference value: 11.7 %); assay type: functional
[30] = Cell cycle arrest in human ALL5 cells assessed as accumulation at G2 phase at 17 uM after 120 hrs by propidium iodide staining based flow cytometric analysis (reference value: 13.6 %); assay type: functional
ALL5 [31] = assay: Increase in p53 expression in human ALL5 cells at 17 uM after 96 hrs by Western blot analysis; assay type: functional, cell-based
[32] = Cell cycle arrest in human ALL5 cells assessed as accumulation at subG1 phase at 17 uM after 96 hrs in presence of CDK4/6 inhibitor palbociclib by propidium iodide staining based flow cytometric analysis (reference value: 1.47%); assay type: functional
[33] = Cell cycle arrest in human ALL5 cells assessed as accumulation at G1 phase at 17 uM after 96 hrs in presence of CDK4/6 inhibitor palbociclib by propidium iodide staining based flow cytometric analysis (reference value: 97.8%); assay type: functional
[34] = Cell cycle arrest in human ALL5 cells assessed as accumulation at S phase at 17 uM after 96 hrs in presence of CDK4/6 inhibitor palbociclib by propidium iodide staining based flow cytometric analysis (reference value: 0.07%); assay type: functional
[35] = Cell cycle arrest in human ALL5 cells assessed as accumulation at G2 phase at 17 uM after 96 hrs in presence of CDK4/6 inhibitor palbociclib by propidium iodide staining based flow cytometric analysis (reference value: 0.64%); assay type: functional
[36] = Cell cycle arrest in human ALL5 cells assessed as accumulation at subG1 phase at 1 uM after 72 hrs by propidium iodide staining based flow cytometric analysis (reference value: 0.54 %); assay type: functional
[37] = Cell cycle arrest in human ALL5 cells assessed as accumulation at G1 phase at 1 uM after 72 hrs by propidium iodide staining based flow cytometric analysis (reference value: 64.4%); assay type: functional
[38] = Cell cycle arrest in human ALL5 cells assessed as accumulation at S phase at 1 uM after 72 hrs by propidium iodide staining based flow cytometric analysis (reference value: 15.2%); assay type: functional
[39] = Cell cycle arrest in human ALL5 cells assessed as accumulation at G2 phase at 1 uM after 72 hrs by propidium iodide staining based flow cytometric analysis (reference value: 19.1%); assay type: functional

Oc1ccc(/C=C/c2cc(O)cc(O)c2)cc1 [RESVERATROL]
IC50 [1]: 10.5 µM

O=C(/C=C/c1cccc(O)c1)Oc1ccc(/C=C/c2cc(OC(=O)/C=C/c3cccc(O)c3)cc(OC(=O)/C=C/c3cccc(O)c3)c2)cc1
IC50 [1]: 10 µM

CCCCCCCCCC(=O)Oc1ccc(/C=C/c2cc(OC(=O)CCCCCCCCC)cc(OC(=O)CCCCCCCCC)c2)cc1
IC50 [1]: > 10 µM

O=C(Oc1ccc(/C=C/c2cc(OC(=O)c3ccccc3)cc(OC(=O)c3ccccc3)c2)cc1)c1ccccc1
IC50 [1]: > 10 µM

CC(C)CC(=O)Oc1ccc(/C=C/c2cc(OC(=O)CC(C)C)cc(OC(=O)CC(C)C)c2)cc1
Activity (HeLa): inactive
Activity [2]: 16.4%
Activity [3]: 66.4%
Activity [4]: 9.6%
Activity [5]: 6.99%
Activity [6]: 59.4%
Activity [7]: 32.5%
Activity [8]: 5.14%
Activity [9]: 2.2%
Activity [10]: 69.9%
Activity [11]: 24.5%
Activity [12]: 4.32%
Activity [13]: 0.86%
Activity (ALL5 [14]): Active
Activity [15]: 7.6%
Activity [16]: 91.6%
Activity [17]: 0.28%
Activity [18]: 0.46%
IC50 [1]: 4.9 µM

COc1cc(/C=C/C(=O)Oc2ccc(/C=C/c3cc(OC(=O)/C=C/c4cc(OC)c(O)c(OC)c4)cc(OC(=O)/C=C/c4cc(OC)c(O)c(OC)c4)c3)cc2)cc(OC)c1O
IC50 [1]: > 10 µM

CC(=O)Oc1ccc(/C=C/c2cc(OC(C)=O)cc(OC(C)=O)c2)cc1 [TRIACETYLRESVERATROL]
Activity (HeLa): inactive
Activity [19]: 12.3%
Activity [20]: 62.5%
Activity [21]: 20.8%
Activity [22]: 3.23%
Activity [23]: 54.6%
Activity [24]: 15.5%
Activity [25]: 16%
Activity [26]: 13.1%
Activity [27]: 60.9%
Activity [28]: 18.5%
Activity [29]: 12.5%
Activity [30]: 7.59%
Activity (ALL5 [31]): Active
Activity [32]: 1.33%
Activity [33]: 98.1%
Activity [34]: 0.06%
Activity [35]: 0.54%
IC50 [1]: 3.4 µM

COc1cc(/C=C/C(=O)Oc2ccc(/C=C/c3cc(OC(=O)/C=C/c4ccc(O)c(OC)c4)cc(OC(=O)/C=C/c4ccc(O)c(OC)c4)c3)cc2)ccc1O
IC50 [1]: 10 µM

CC(C)C(=O)Oc1ccc(/C=C/c2cc(OC(=O)C(C)C)cc(OC(=O)C(C)C)c2)cc1
Activity (HeLa): inactive
Activity [2]: 23.1%
Activity [3]: 72.5%
Activity [4]: 2.14%
Activity [5]: 2.02%
Activity [6]: 48.1%
Activity [7]: 44.8%
Activity [8]: 6.34%
Activity [9]: 0.34%
Activity [10]: 63.7%
Activity [11]: 26.1%
Activity [12]: 9.11%
Activity [13]: 0.49%
Activity (ALL5 [14]): Active
Activity [15]: 5.76%
Activity [16]: 93.6%
Activity [17]: 0.21%
Activity [18]: 0.45%
IC50 [1]: 5.1 µM

O=C(CCl)Oc1ccc(/C=C/c2cc(OC(=O)CCl)cc(OC(=O)CCl)c2)cc1
IC50 [1]: 10 to 10.5 µM

O=C(Oc1ccc(/C=C/c2cc(OC(=O)c3c(Cl)cccc3Cl)cc(OC(=O)c3c(Cl)cccc3Cl)c2)cc1)c1c(Cl)cccc1Cl
IC50 [1]: > 10 µM

COc1cccc(C(=O)Oc2ccc(/C=C/c3cc(OC(=O)c4cccc(OC)c4OC)cc(OC(=O)c4cccc(OC)c4OC)c3)cc2)c1OC
IC50 [1]: > 10 µM

O=C(/C=C/c1ccc(O)cc1)Oc1ccc(/C=C/c2cc(OC(=O)/C=C/c3ccc(O)cc3)cc(OC(=O)/C=C/c3ccc(O)cc3)c2)cc1
IC50 [1]: > 10 µM

O=C(/C=C/c1ccccc1)Oc1ccc(/C=C/c2cc(OC(=O)/C=C/c3ccccc3)cc(OC(=O)/C=C/c3ccccc3)c2)cc1
IC50 [1]: > 10 µM

COc1cc(C(=O)Oc2ccc(/C=C/c3cc(OC(=O)c4cc(OC)c(OC)c(OC)c4)cc(OC(=O)c4cc(OC)c(OC)c(OC)c4)c3)cc2)cc(OC)c1OC
IC50 [1]: > 10 µM

COc1ccc(/C=C/C(=O)Oc2ccc(/C=C/c3cc(OC(=O)/C=C/c4ccc(OC)c(OC)c4)cc(OC(=O)/C=C/c4ccc(OC)c(OC)c4)c3)cc2)cc1OC
IC50 [1]: > 10 µM

CC(=O)c1c(C)c2cnc(Nc3ccc(N4CCNCC4)cn3)nc2n(C2CCCC2)c1=O [PALBOCICLIB]
Activity [36]: 0.76%
Activity [37]: 98.1%
Activity [38]: 0.29%
Activity [39]: 0.8%

— ChEMBL document CHEMBL4020771, “Activity of resveratrol triesters against primary acute lymphoblastic leukemia cells” (Bioorg Med Chem Lett, 2017)
